Experimental data: patent US20240067645A1, “HETEROCYCLIC COMPOUND AS DIACYLGLYCEROL KINASE INHIBITOR AND USE THEREOF” (LG CHEM, LTD., priority 2020, published 2024)

biological target: DGKα (Homo sapiens (Human), UniProt P23743); assay: Measurement of inhibitory effect against DGKα enzyme (ADP-Glo); format: biochemical; settings: DGKα enzyme, ADP-Glo luminescence, OAG/ATP substrate, 20 min room temperature; read-out: IC50
Protocol: Experimental Example: Measurement of Inhibitory Effect Against DGKα Enzyme
First, 3×OAG (3 mM)/ATP (0.45 mM) substrate solution was prepared from 1× substrate assay buffer (40 mM MOPS (pH 7.2), 20 mM MgCl2, 1 mM DTT, 0.4 mM CaCl2), 3 mM sodium deoxycholate, 100 mM NaCl, 0.1 mg/mL BSA, 0.12% NP-40), and vortexed thoroughly for 3 minutes to induce detergent-lipid micelle formation. Then, 3×DGKα (7.5 nM) enzyme solution was prepared from 2× enzyme assay buffer (80 mM MOPS (pH 7.2), 2 mM DTT, 200 mM NaCl, 0.2 mg/mL BSA) and vortexed for a short time.
After preparing the above two solutions, a half-area opaque 96-well assay plate was prepared, and 10 μL of 3× diluted compound solution (30 μM to 0 μM) was transferred to each well. Next, 10 μL of 3×DGK enzyme solution was transferred to the same plate, mixed by pipetting, and then 10 μL of 3×OAG/ATP substrate solution was added to the assay plate and mixed well. The plate was incubated at room temperature for 20 minutes for the enzyme reaction. Next, 15 μL of ADP-Glo reagent was added to each well and mixed by pipetting, followed by incubating the plate at room temperature for 40 minutes to deplete the remaining ATPs. After this step, 30 μL of kinase detection reagent was added and mixed, and the plate was incubated at room temperature for an additional 20 minutes and luminescence was measured by Envision to calculate the IC50 value of each compound.
The measurement results are represented in Table 1 (+: IC50>5 μM, ++: 5 μM>IC50>300 nM, +++: IC50<300 nM).

Sequence of DGKα (P23743 whole entry, species assumed): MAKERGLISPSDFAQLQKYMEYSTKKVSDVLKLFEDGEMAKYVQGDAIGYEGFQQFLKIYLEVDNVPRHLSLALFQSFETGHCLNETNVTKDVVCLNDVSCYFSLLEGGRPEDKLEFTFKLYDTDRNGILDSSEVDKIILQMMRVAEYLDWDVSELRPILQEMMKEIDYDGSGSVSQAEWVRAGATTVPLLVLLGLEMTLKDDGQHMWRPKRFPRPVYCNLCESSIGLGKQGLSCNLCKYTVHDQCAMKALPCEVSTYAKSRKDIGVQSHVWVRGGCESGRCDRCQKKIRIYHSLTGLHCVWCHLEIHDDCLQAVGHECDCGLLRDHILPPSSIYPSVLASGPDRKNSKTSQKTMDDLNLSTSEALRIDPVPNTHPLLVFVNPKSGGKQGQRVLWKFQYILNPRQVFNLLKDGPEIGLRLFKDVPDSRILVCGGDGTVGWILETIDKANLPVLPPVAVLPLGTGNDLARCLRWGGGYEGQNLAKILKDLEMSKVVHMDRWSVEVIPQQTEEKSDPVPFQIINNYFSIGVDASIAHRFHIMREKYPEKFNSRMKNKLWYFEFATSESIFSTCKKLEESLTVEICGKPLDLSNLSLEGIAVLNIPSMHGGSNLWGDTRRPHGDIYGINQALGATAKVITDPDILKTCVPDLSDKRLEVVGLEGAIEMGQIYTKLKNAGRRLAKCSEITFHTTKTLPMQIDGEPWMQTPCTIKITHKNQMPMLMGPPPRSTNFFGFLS

IC50	Structure (SMILES)
< 300 nM	Cc1ccc2c(n1)n(C1CCN(Cc3cccc(Cl)c3)CC1)c(=O)c(=O)n2C [Example 13, 4-(1-(3-chlorobenzyl)piperidin-4-yl)-1,6-dimethyl-1,4-dihydropyrido[2,3-b]pyrazine-2,3-dione]
< 300 nM	CC(=O)c1cnc2c(c1)n(C)c(=O)c(=O)n2C1CCN(Cc2ccc(OC(F)(F)F)cc2)CC1 [Example 48, 7-acetyl-1-methyl-4-(1-(4-(trifluoromethoxy)benzyl)piperidin-4-yl)-1,4-dihydropyrido[2,3-b]pyrazine-2,3-dione]
300 to 5000 nM	Cn1c(=O)c(=O)n(C2CCN(Cc3ccc(OC(F)(F)F)cc3)CC2)c2ncc(F)cc21 [Example 59, 7-fluoro-1-methyl-4-(1-(4-(trifluoromethoxy)benzyl)piperidin-4-yl)-1,4-dihydropyrido[2,3-b]pyrazine-2,3-dione]
< 300 nM	Cn1cc(-c2cnc3c(c2)n(C)c(=O)c(=O)n3C2CCN(Cc3ccc(OC(F)(F)F)cc3)CC2)cn1 [Example 36, 1-methyl-7-(1-methyl-1H-pyrazol-4-yl)-4-(1-(4-(trifluoromethoxy)benzyl)piperidin-4-yl)-1,4-dihydropyrido[2,3-b]pyrazine-2,3-dione]
< 300 nM	Cn1c(=O)c(=O)n(C2CCN(Cc3ccc(OC(F)(F)F)cc3)CC2)c2ncc(Cl)cc21 [Example 28, 7-chloro-1-methyl-4-(1-(4-(trifluoromethoxy)benzyl)piperidin-4-yl)-1,4-dihydropyrido[2,3-b]pyrazine-2,3-dione]
< 300 nM	Cn1c(=O)c(=O)n(C2CCN(Cc3ccc(OC(F)(F)F)cc3)CC2)c2ncc(C(N)=O)cc21 [Example 66, 1-methyl-2,3-dioxo-4-(1-(4-(trifluoromethoxy)benzyl)piperidin-4-yl)-1,2,3,4-tetrahydropyrido[2,3-b]pyrazine-7-carboxamide]
300 to 5000 nM	Cc1ccc2c(n1)n(C1CCN(Cc3cccc4cnccc34)CC1)c(=O)c(=O)n2C [Example 20, 4-(1-(isoquinolin-5-ylmethyl)piperidin-4-yl)-1,6-dimethyl-1,4-dihydropyrido[2,3-b]pyrazine-2,3-dione]
300 to 5000 nM	Cc1ccc2c(n1)n(C1CCN(Cc3ccc4ccccc4c3)CC1)c(=O)c(=O)n2C [Example 19, 1,6-dimethyl-4-(1-(naphthalen-2-ylmethyl)piperidin-4-yl)-1,4-dihydropyrido[2,3-b]pyrazine-2,3-dione]
300 to 5000 nM	Cc1ccc2c(n1)n(C1CCN(Cc3ccc(F)nc3)CC1)c(=O)c(=O)n2C [Example 17, 4-(1-((6-fluoropyridin-3-yl)methyl)piperidin-4-yl)-1,6-dimethyl-1,4-dihydropyrido[2,3-b]pyrazine-2,3-dione]
< 300 nM	Cc1ccc2c(n1)n(C1CCN(Cc3ccc(OC(F)(F)F)cc3)CC1)c(=O)c(=O)n2C [Example 2, 1,6-dimethyl-4-(1-(4-(trifluoromethoxy)benzyl)piperidin-4-yl)-1,4-dihydropyrido[2,3-b]pyrazine-2,3-dione]
300 to 5000 nM	CNC(=O)c1cnc2c(c1)n(C)c(=O)c(=O)n2C1CCN(Cc2ccc(OC(F)(F)F)cc2)CC1 [Example 65, N,1-dimethyl-2,3-dioxo-4-(1-(4-(trifluoromethoxy)benzyl)piperidin-4-yl)-1,2,3,4-tetrahydropyrido[2,3-b]pyrazine-7-carboxamide]
300 to 5000 nM	Cn1c(=O)c(=O)n(C2CCN(Cc3ccc(OC(F)(F)F)cc3)CC2)c2nc(C#N)c(Br)cc21 [Example 38, 7-bromo-1-methyl-2,3-dioxo-4-(1-(4-(trifluoromethoxy)benzyl)piperidin-4-yl)-1,2,3,4-tetrahydropyrido[2,3-b]pyrazine-6-carbonitrile]
300 to 5000 nM	Cn1c(=O)c(=O)n(C2CCN(Cc3cccc4nccnc34)CC2)c2ncc(Cl)cc21 [Example 33, 7-chloro-1-methyl-4-(1-(quinoxalin-5-ylmethyl)piperidin-4-yl)-1,4-dihydropyrido[2,3-b]pyrazine-2,3-dione]
300 to 5000 nM	Cn1c(=O)c(=O)n(C2CCN(C(c3cccc(Cl)c3)c3cccc(Cl)c3)CC2)c2ncc(Cl)cc21 [Example 45, 4-(1-(bis(3-chlorophenyl)methyl)piperidin-4-yl)-7-chloro-1-methyl-1,4-dihydropyrido[2,3-b]pyrazine-2,3-dione]
< 300 nM	Cn1c(=O)c(=O)n(C2CCN(Cc3ccc(OC(F)(F)F)cc3)CC2)c2ncc(-c3ccccc3F)cc21 [Example 39, 7-(2-fluorophenyl)-1-methyl-4-(1-(4-(trifluoromethoxy)benzyl)piperidin-4-yl)-1,4-dihydropyrido[2,3-b]pyrazine-2,3-dione]
300 to 5000 nM	Cn1c(=O)c(=O)n(C2CCN(Cc3cccc4ccccc34)CC2)c2nc(C#N)ccc21 [Example 26, 1-methyl-4-(1-(naphthalen-1-ylmethyl)piperidin-4-yl)-2,3-dioxo-1,2,3,4-tetrahydropyrido[2,3-b]pyrazine-6-carbonitrile]
> 5000 nM	CC(C)Cn1c(=O)c(=O)n(C2CCN(Cc3ccc(OC(F)(F)F)cc3)CC2)c2ncccc21 [Example 4, isobutyl-4-(1-(4-(trifluoromethoxy)benzyl)piperidin-4-yl)-1,4-dihydropyrido[2,3-b]pyrazine-2,3-dione]
> 5000 nM	CC(C)Oc1ccc2c(n1)n(C1CCN(Cc3ccc(OC(F)(F)F)cc3)CC1)c(=O)c(=O)n2C [Example 58, 6-isopropoxy-1-methyl-4-(1-(4-(trifluoromethoxy)benzyl)piperidin-4-yl)-1,4-dihydropyrido[2,3-b]pyrazine-2,3-dione]
< 300 nM	Cc1cnc2c(c1)n(C)c(=O)c(=O)n2C1CCN(Cc2cccc(Cl)c2)CC1 [Example 67, 4-(1-(3-chlorobenzyl)piperidin-4-yl)-1,7-dimethyl-1,4-dihydropyrido[2,3-b]pyrazine-2,3-dione]
> 5000 nM	Cc1ccc2c(n1)n(C1CCN(Cc3c(C)n(C)c4ccccc34)CC1)c(=O)c(=O)n2C [Example 7, 4-(1-((1,2-dimethyl-1H-indol-3-yl)methyl)piperidin-4-yl)-1,6-dimethyl-1,4-dihydropyrido[2,3-b]pyrazine-2,3-dione]
< 300 nM	Cn1c(=O)c(=O)n(C2CCN(Cc3cccc4ccccc34)CC2)c2ncc(Cl)cc21 [Example 29, 7-chloro-1-methyl-4-(1-(naphthalen-1-ylmethyl)piperidin-4-yl)-1,4-dihydropyrido[2,3-b]pyrazine-2,3-dione]
< 300 nM	Cn1c(=O)c(=O)n(C2CCN(Cc3cccc4c3CCCC4)CC2)c2ncc(Cl)cc21 [Example 37, 7-chloro-1-methyl-4-(1-((5,6,7,8-tetrahydronaphthalen-1-yl)methyl)piperidin-4-yl)-1,4-dihydropyrido[2,3-b]pyrazine-2,3-dione]
300 to 5000 nM	Cc1ccc2c(n1)n(C1CCN(Cc3cccc(Oc4ccccc4)c3)CC1)c(=O)c(=O)n2C [Example 21, 1,6-dimethyl-4-(1-(3-phenoxybenzyl)piperidin-4-yl)-1,4-dihydropyrido[2,3-b]pyrazine-2,3-dione]
300 to 5000 nM	CCn1c(=O)c(=O)n(C2CCN(Cc3ccc(OC(F)(F)F)cc3)CC2)c2ncccc21 [Example 3, ethyl-4-(1-(4-(trifluoromethoxy)benzyl)piperidin-4-yl)-1,4-dihydropyrido[2,3-b]pyrazine-2,3-dione]
